row,SMILES,melting point
1,"CC(C)n1nc(-c2c(OCc3ccccn3)nc(N)nc2-c2ccccc2)ccc1=O [Example 94, 6-[2-amino-4-phenyl-6-(2-pyridinylmethoxy)-5-pyrimidinyl]-2-isopropyl-3(2H)-pyridazinone]",177 to 178 °C
2,"CC(C)n1nc(-c2c(Oc3ccccc3)nc(N)nc2-c2ccccc2)ccc1=O [Example 98, 6-(2-Amino-4-phenoxy-6-phenyl-5-pyrimidinyl)-2-isopropyl-3(2H)-pyridazinone]",218 to 221 °C
3,"COc1ccc(-c2nc(N)ncc2-c2ccc(=O)n(C)n2)cc1OC [Example 67, 6-[2-Amino-4-(3,4-dimethoxyphenyl)-5-pyrimidinyl]-2-methyl-3(2H)-pyridazinone]",232 °C
4,"CC(C)n1nc(-c2c(-c3ccccc3)nc(N)nc2S(C)(=O)=O)ccc1=O [Example 79, 6-[2-amino-4-(methylsulfonyl)-6-phenyl-5-pyrimidinyl]-2-isopropyl-3(2H)-pyridazinone]",210 to 211 °C
5,"Cn1nc(-c2cnc(N)nc2-c2ccccc2Br)ccc1=O [Example 74, 6-[2-Amino-4-(2-bromophenyl)-5-pyrimidinyl]-2-methyl-3(2H)-pyridazinone]",> 250 °C
6,"CC(C)n1nc(-c2cnc(N)nc2-c2ccccc2Cl)ccc1=O [Example 22, 6-[2-Amino-4-(2-chlorophenyl)-5-pyrimidinyl]-2-isopropyl-3(2H)-pyridazinone]",227 to 228.5 °C
7,"CC(C)COc1ccc(-c2nc(N)ncc2-c2ccc(=O)n(C(C)C)n2)cc1 [Example 200, 6-[2-Amino-4-(4-isobutoxyphenyl)-5-pyrimidinyl]-2-isopropyl-3(2H)-pyridazinone]",166 °C
8,"Cn1nc(-c2cnc(N)nc2-c2ccc(Cl)c(Cl)c2)ccc1=O [Example 68, 6-[2-Amino-4-(3,4-dichlorophenyl)-5-pyrimidinyl]-2-methyl-3(2H)-pyridazinone]",238 °C
9,"CC(C)n1nc(-c2cnc(N(C)C)nc2-c2ccccc2)ccc1=O [Example 11, 6-[2-(Dimethylamino)-4-phenyl-5-pyrimidinyl]-2-isopropyl-3(2H)-pyridazinone]",155 to 156 °C
10,"Cn1nc(-c2cnc(N)nc2-c2ccc(F)c(F)c2)ccc1=O [Example 66, 6-[2-Amino-4-(3,4-difluorophenyl)-5-pyrimidinyl]-2-methyl-3(2H)-pyridazinone]",231 °C
11,"Cn1nc(-c2cnc(N)nc2-c2ccccc2)ccc1=O [Example 3, 6-(2-Amino-4-phenyl-5-pyrimidinyl)-2-methyl-3(2H)-pyridazinone]",254 to 255 °C
12,"CC(C)n1nc(-c2c(OCCN3C(=O)c4ccccc4C3=O)nc(N)nc2-c2ccccc2)ccc1=O [Example 90, 2-(2-{[2-Amino-5-(1-isopropyl-6-oxo-1,6-dihydro-3-pyridazinyl)-6-phenyl-4-pyrimidinyl]oxy}-ethyl)-1H-isoindole-1,3(2H)-dione]",231.5 to 232.5 °C
13,"COc1ccc(-c2nc(N)ncc2-c2ccc(=O)n(C)n2)cc1 [Example 60, 6-[2-Amino-4-(4-methoxyphenyl)-5-pyrimidinyl]-2-methyl-3(2H)-pyridazinone]",259 °C
14,"Cc1ccccc1-c1nc(N)ncc1-c1ccc(=O)n(C(C)C)n1 [Example 56, 6-[2-Amino-4-(2-methylphenyl)-5-pyrimidinyl]-2-isopropyl-3(2H)-pyridazinone]",203 °C
15,"COc1ccc(-c2nc(N)ncc2-c2ccc(=O)n(C(C)C)n2)cc1F [Example 46, 6-[2-Amino-4-(3-fluoro-4-methoxyphenyl)-5-pyrimidinyl]-2-isopropyl-3(2H)-pyridazinone]",174 °C
16,"CC(C)n1nc(-c2cnc(Nc3ccccc3)nc2-c2ccccc2)ccc1=O [Example 19, 6-(2-Anilino-4-phenyl-5-pyrimidinyl)-2-isopropyl-3(2H)-pyridazinone]",200 to 202 °C
17,"CC(C)n1nc(-c2c(OCCN(C)C)nc(N)nc2-c2ccccc2)ccc1=O [Example 88, 6-{2-Amino-4-[2-(dimethylamino)ethoxy]-6-phenyl-5-pyrimidinyl}-2-isopropyl-3(2H)-pyridazinone]",130 to 131.5 °C

# The next lines start with the values.
row,melting point,SMILES
1,241 °C,"CC(C)n1nc(-c2cnc(N)nc2-c2ccccc2O)ccc1=O (hydrate or solvate) [Example 186, 6-[2-Amino-4-(2-hydroxyphenyl)-5-pyrimidinyl]-2-isopropyl-3(2H)-pyridazinone]"
2,191 to 192 °C,"CC(C)n1nc(-c2c(NCc3ccccc3)nc(N)nc2-c2ccc(F)cc2)ccc1=O [Example 156, 6-[2-Amino-4-(benzylamino)-6-(4-fluorophenyl)-5-pyrimidinyl]-2-isopropyl-3(2H)-pyridazinone]"
3,291 to 295 °C,"CC(C)n1nc(-c2c(-c3ccccc3)nc(N)[nH]c2=O)ccc1=O [Example 140, 6-(2-amino-6-oxo-4-phenyl-1,6-dihydro-5-pyrimidinyl)-2-isopropyl-3(2H)-pyridazinone]"
4,158 °C,"COc1ccc(-c2nc(N(C)C)ncc2-c2ccc(=O)n(C)n2)cc1F [Example 249, 6-[2-(Dimethylamino)-4-(3-fluoro-4-methoxyphenyl)-5-pyrimidinyl]-2-methyl-3(2H)-pyridazinone]"
5,162 °C,"CC(C)n1nc(-c2cnc(N)nc2-c2ccc(OCCN(C)C)cc2)ccc1=O [Example 217, 6-(2-amino-4-{4-(2-(dimethylamino)ethoxy]phenyl}-5-pyrimidinyl)-2-isopropyl-3(2H)-pyridazinone]"
6,142 °C,"CCOc1cccc(-c2nc(N)ncc2-c2ccc(=O)n(C(C)C)n2)c1 [Example 190, 6-[2-Amino-4-(3-ethoxyphenyl)-5-pyrimidinyl]-2-isopropyl-3(2H)-pyridazinone]"
7,161 °C,"CC(C)CC(=O)Nc1ncc(-c2ccc(=O)n(C(C)C)n2)c(-c2ccccc2)n1 [Example 162, N-[5-(1-isopropyl-6-oxo-1,6-dihydro-3-pyridazinyl)-4-phenyl-2-pyrimidinyl]-3-methylbutanamide]"
8,184 °C,"CCCCCCOc1ccc(-c2nc(N)ncc2-c2ccc(=O)n(C(C)C)n2)cc1 [Example 206, 6-{2-Amino-4-[4-(hexyloxy)phenyl]-5-pyrimidinyl}-2-isopropyl-3(2H)-pyridazinone]"
9,92 °C,"CCCCCCOc1ccccc1-c1nc(N)ncc1-c1ccc(=O)n(C(C)C)n1 [Example 207, 6-{2-Amino-4-[2-(hexyloxy)phenyl]-5-pyrimidinyl}-2-isopropyl-3(2H)-pyridazinone]"
10,122 °C,"CCCOc1cccc(-c2nc(N)ncc2-c2ccc(=O)n(C(C)C)n2)c1 [Example 193, 6-[2-Amino-4-(3-propoxyphenyl)-5-pyrimidinyl]-2-isopropyl-3(2H)-pyridazinone]"
11,115 °C,"CC(C)n1nc(-c2cnc(N)nc2-c2ccccc2OCCN2CCOCC2)ccc1=O [Example 221, 6-(2-Amino-4-{2-[2-(4-morpholinyl)ethoxy]phenyl}-5-pyrimidinyl)-2-isopropyl-3(2H)-pyridazinone]"
12,145 °C,"CCCOc1ccccc1-c1nc(N)ncc1-c1ccc(=O)n(C(C)C)n1 [Example 192, 6-[2-Amino-4-(2-propoxyphenyl)-5-pyrimidinyl]-2-isopropyl-3(2H)-pyridazinone]"
13,216 °C,"CC(C)n1nc(-c2cnc(N)nc2-c2ccoc2)ccc1=O [Example 241, 6-[2-Amino-4-(3-furyl)-5-pyrimidinyl]-2-isopropyl-3(2H)-pyridazinone]"
14,197 to 200 °C,"COC(=O)Nc1ncc(-c2ccc(=O)n(C(C)C)n2)c(-c2ccccc2)n1 [Example 168, Methyl 5-(1-isopropyl-6-oxo-1,6-dihydro-3-pyridazinyl)-4-phenyl-2-pyrimidinylcarbamate]"
15,164 to 165.5 °C,"CC(C)n1nc(-c2c(NCCN(C)C)nc(N)nc2-c2ccccc2)ccc1=O [Example 117, 6-(2-Amino-4-{[2-(dimethylamino)ethyl]amino}-6-phenyl-5-pyrimidinyl)-2-isopropyl-3(2H)-pyridazinone]"
16,213 to 214 °C,"CC(C)n1nc(-c2c(NCc3ccco3)nc(N)nc2-c2ccccc2)ccc1=O [Example 124, 6-{2-Amino-4-[(2-furylmethyl)amino]-6-phenyl-5-pyrimidinyl}-2-isopropyl-3(2H)-pyridazinone]"
17,127 to 130 °C,"COc1nc(N)nc(-c2ccc([S+](C)[O-])cc2)c1-c1ccc(=O)n(C(C)C)n1 (stereo not shown) [Example 153, 6-{2-Amino-4-methoxy-6-[4-(methylsulfinyl)phenyl]-5-pyrimidinyl}-2-isopropyl-3(2H)-pyridazinone]"
18,168 to 170 °C,"COCCNc1nc(N)nc(-c2ccccc2)c1-c1ccc(=O)n(C(C)C)n1 [Example 115, 6-{2-amino-4-[(2-methoxyethyl)amino]-6-phenyl-5-pyrimidinyl}-2-isopropyl-3(2H)-pyridazinone]"
19,208 °C,"CC(C)n1nc(-c2cnc(N)nc2-c2c(Cl)cccc2Cl)ccc1=O [Example 239, 6-[2-Amino-4-(2,6-dichlorophenyl)-5-pyrimidinyl]-2-isopropyl-3(2H)-pyridazinone]"
20,210 to 212 °C,"CC(C)n1nc(-c2c(NCc3ccccn3)nc(N)nc2-c2ccc(F)cc2)ccc1=O [Example 157, 6-{2-Amino-4-(4-fluorophenyl)-6-[(2-pyridinylmethyl)amino]-5-pyrimidinyl}-2-isopropyl-3(2H)-pyridazinone]"
21,171 to 174 °C,"COc1ccc(C(=O)Nc2ncc(-c3ccc(=O)n(C(C)C)n3)c(-c3ccccc3)n2)cc1 [Example 172, N-[5-(1-isopropyl-6-oxo-1,6-dihydro-3-pyridazinyl)-4-phenyl-2-pyrimidinyl]-4-methoxybenzamide]"
22,242 to 244 °C,"CC(C)n1nc(-c2c(-c3ccccc3)nc(N)nc2-n2cnc3ccccc32)ccc1=O [Example 132, 6-[2-Amino-4-(1H-benzimidazol-1-yl)-6-phenyl-5-pyrimidinyl]-2-isopropyl-3(2H)-pyridazinone]"
23,204 °C,"CC(C)n1nc(-c2cnc(N)nc2-c2ccc(Br)cc2)ccc1=O [Example 235, 6-[2-Amino-4-(4-bromophenyl)-5-pyrimidinyl]-2-isopropyl-3(2H)-pyridazinone]"

# — patent US20050043315A1, “Aminopyrimidine compounds, processes for their preparation and pharmaceutical compositions containing them” (priority 2002, published 2005)
